Measured values from patent publication US10723723B2, “Substituted bicycle heterocyclic derivatives useful as ROMK channel inhibitors” (BRISTOL-MYERS SQUIBB COMPANY, priority 2016, dated 2020).

What was measured:
Assay type in all cases: cell-based
hROMK (human Kir1.1) = hROMK (human Kir1.1) (Homo sapiens (Human), UniProt P48048); experiment: Thallium Flux Assay (FluxOR, CHO T-Rex hROMK stable cell line); conditions: CHO T-Rex hROMK cells, 10-point concentration response curve; read-out: Human ROMK TH Flux IC50
hROMK = hROMK (Homo sapiens (Human), UniProt P48048); experiment: ROMK Manual Patch Clamp Assay; conditions: whole-cell manual patch clamp, hROMK current; read-out: ROMK EP IC50
Procedure: Cell culture conditions: Cells were maintained in conditions similar to those for Thallium flux assay. hROMK channel expression was induced by adding 0.6 μg/ml of Doxycycline 16-24 hrs prior to the experiments. On the day of experiment, the cells were dissociated using Versene, resuspended in growth media and plated onto coverslips 15 minutes prior to use.
The cells were voltage clamped at −75 mV in whole-cell configuration using an Axopatch 200b or Multiclamp 700b (Molecular Devices) amplifier controlled by pClamp Software (Molecular Devices). The current was recorded by applying a voltage step to −120 mV every 10 seconds. […] At the end of the experiment, the cells were perfused with bath solution containing 2 mM Ba^2+ to isolate the contribution of hROMK current.
Data analysis: Raw current values (5 traces each for control, different compound concentration and Ba^2+ treatment groups) were exported from Clampfit into Microsoft Excel where the current remaining after application of Ba^2+ was subtracted from raw current to obtain hROMK specific current.

hERG channels = hERG channels (Homo sapiens (Human), UniProt Q12809); experiment: hERG Manual Patch Clamp Assay (HEK 293 cells stably expressing hERG channels); conditions: human, HEK 293 cells stably expressing hERG channels, pH 7.4
Chain of hERG channels (Q12809 whole entry): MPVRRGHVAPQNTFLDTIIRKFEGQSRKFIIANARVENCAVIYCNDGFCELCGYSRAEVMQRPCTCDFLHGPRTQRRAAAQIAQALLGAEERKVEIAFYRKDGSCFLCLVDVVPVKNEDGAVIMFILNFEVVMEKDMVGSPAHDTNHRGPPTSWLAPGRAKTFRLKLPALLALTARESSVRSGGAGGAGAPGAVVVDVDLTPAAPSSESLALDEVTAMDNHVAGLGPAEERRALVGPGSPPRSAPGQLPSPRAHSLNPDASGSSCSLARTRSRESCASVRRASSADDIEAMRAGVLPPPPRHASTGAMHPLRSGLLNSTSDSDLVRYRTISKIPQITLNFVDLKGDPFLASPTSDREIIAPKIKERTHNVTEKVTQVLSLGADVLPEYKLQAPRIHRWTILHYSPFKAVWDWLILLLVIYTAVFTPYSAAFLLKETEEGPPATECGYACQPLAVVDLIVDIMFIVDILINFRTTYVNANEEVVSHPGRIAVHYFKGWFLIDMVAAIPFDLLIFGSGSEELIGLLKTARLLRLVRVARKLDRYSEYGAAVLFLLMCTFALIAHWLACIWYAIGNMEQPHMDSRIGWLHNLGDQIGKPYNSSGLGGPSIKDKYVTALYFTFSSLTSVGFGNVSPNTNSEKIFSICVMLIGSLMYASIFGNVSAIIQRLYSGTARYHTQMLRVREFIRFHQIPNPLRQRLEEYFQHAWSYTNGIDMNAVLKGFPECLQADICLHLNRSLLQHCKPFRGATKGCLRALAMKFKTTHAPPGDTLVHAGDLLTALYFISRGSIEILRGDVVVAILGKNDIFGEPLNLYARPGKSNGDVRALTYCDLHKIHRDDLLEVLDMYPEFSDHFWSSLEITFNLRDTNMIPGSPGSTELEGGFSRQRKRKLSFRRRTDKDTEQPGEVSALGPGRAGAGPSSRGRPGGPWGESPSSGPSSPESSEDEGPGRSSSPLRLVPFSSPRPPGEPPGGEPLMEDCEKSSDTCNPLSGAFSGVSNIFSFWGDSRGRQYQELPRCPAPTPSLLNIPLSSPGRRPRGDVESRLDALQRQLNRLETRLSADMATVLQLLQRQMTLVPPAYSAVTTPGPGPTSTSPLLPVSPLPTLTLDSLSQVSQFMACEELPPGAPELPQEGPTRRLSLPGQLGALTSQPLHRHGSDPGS
Procedure: hERG electrophysiology assay: The experimental compounds were assessed for hERG activity on HEK 293 cells stably expressing hERG channels using patch clamp technique. Coverslips plated with hERG expressing cells were placed in the experimental chamber and were perfused with a solution composed of (in mM): 140 NaCl, 4 KCl, 1.8 CaCl2), 1 MgCl2, 10 Glucose, 10 HEPES (pH 7.4, NaOH) at room temperature. Borosilicate patch pipettes had tip resistances of 2-4 Mohms when filled with an internal solution containing: 130 KCl, 1 MgCl2, 1 CaCl2), 10 EGTA, 10 HEPES, 5 ATP-K2 (pH 7.2, KOH). The cells were clamped at −80 mV in whole cell configuration using an Axopatch 200B (Axon instruments, Union City, Calif.) patch clamp amplifier controlled by pClamp (Axon instruments) software. Upon formation of a gigaseal, the following voltage protocol was repeatedly (0.05 Hz) applied to record tail currents: depolarization step from −80 mV to +20 mV for 2 seconds followed by a hyperpolarization step to −65 mV (3 seconds) to elicit tail currents. Compounds were applied after stabilization of tail current. First, tail currents were recorded in presence of extracellular solution alone (control) and subsequently, in extracellular solution containing increasing compound concentrations. Each compound concentration was applied for 2-5 minutes. The percentage inhibition at each concentration was calculated as reduction in peak tail current with respect to the peak tail current recorded in the presence of control solution. Data analysis was performed in a custom made template. The percent inhibitions at different concentrations were plotted to obtain a concentration response curve, which was subsequently fitted with a four parameter equation to calculate hERG IC50 value.
A lower hERG % Inhibition value indicates less inhibition of the hERG current

Chain of hROMK (human Kir1.1) (P48048 whole entry): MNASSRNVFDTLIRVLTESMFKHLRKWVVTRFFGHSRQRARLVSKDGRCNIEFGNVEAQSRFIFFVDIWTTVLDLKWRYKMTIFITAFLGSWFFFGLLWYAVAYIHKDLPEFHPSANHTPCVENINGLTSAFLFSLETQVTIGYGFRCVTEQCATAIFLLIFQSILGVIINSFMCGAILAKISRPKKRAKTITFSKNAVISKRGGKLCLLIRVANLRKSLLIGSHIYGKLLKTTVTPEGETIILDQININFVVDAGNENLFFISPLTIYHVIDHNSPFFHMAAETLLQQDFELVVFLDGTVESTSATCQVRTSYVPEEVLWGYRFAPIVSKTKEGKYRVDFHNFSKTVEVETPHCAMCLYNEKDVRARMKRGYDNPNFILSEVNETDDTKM
Chain of hROMK (P48048 whole entry): as above

Structure (SMILES) | IC50 (hROMK (human Kir1.1)) [nM] | IC50 (hROMK) [nM] | inhibition at 1 µM (hERG channels) [%]
Cc1c([C@@H](O)CNCc2cn(-c3ccc4oc(=O)n(C)c4c3)nn2)ccc2c1COC2=O [Example 139, (R)-5-(4-(((2-hydroxy-2-(4-methyl-1-oxo-1,3-dihydroisobenzofuran-5-yl)ethyl)amino)methyl)-1H-1,2,3-triazol-1-yl)-3-methylbenzo[d]oxazol-2(3H)-one] | 55 | 24 | 5.9
Cc1cc(-c2cc(CNC[C@H](O)c3ccc4c(c3C)COC4=O)on2)ncc1C#N [Example 140, (R)-6-(5-(((2-hydroxy-2-(4-methyl-1-oxo-1,3-dihydroisobenzofuran-5-yl)ethyl)amino)methyl)isoxazol-3-yl)-4-methylnicotinonitrile] | 56 | 16 | 8.6
Cc1c([C@@H](O)CNCc2ccc(-n3cc(C#N)cn3)nc2)ccc2c1COC2=O [Example 177] | 0.57 | 0.15 | 98
Cc1nn(-c2ccc(CNC[C@H](O)c3ccc4c(c3C)COC4=O)cn2)cc1C#N [Example 178, (R)-1-(5-(((2-hydroxy-2-(4-methyl-1-oxo-1,3-dihydroisobenzofuran-5-yl)ethyl)amino)methyl)pyridin-2-yl)-3-methyl-1H-pyrazole-4-carbonitrile] | 3.6 | 2.1 | 36
